Test results from patent US20170355959A1, “METHODS FOR MOBILISING POPULATIONS OF STEM CELLS” (Imperial Innovations Limited, priority 2014, published 2017).

Legend:
HSPCs = assay: Mobilization of HSPCs into peripheral blood (CFU-HPC assay); assay type: in vivo; settings: mice pre-treated with 0-30 mg/kg BRL37344 for 4 days
CFU-Fs (MSCs) = assay: In situ perfusion of mouse hind limb, CFU-Fs in perfusate; assay type: in vivo, mice; settings: four day pretreatment, b3 adrenergic agonist in combination with FAAH inhibitor
Procedure: Mice were administered BRL 37344 (10 mg/kg i.p.) or vehicle on 4 consecutive days. 1 hour after the last injection, the mice were anaesthetized. The femoral vein and artery were exposed and cannulated in situ immediately after the hind limb was isolated by occlusion of the surrounding arteries as previously described (Pitchford et al, 2009; Pitchford et al, 2010). Perfusion buffer was infused via the arterial cannula and removed from the venous cannula using a Minipuls Peristaltic Pump (Anachem). The hind limb was initially infused with AMD3100 (0.1 mM) or vehicle for 10 minutes using an infusion/withdrawal pump (Harvard Instruments) and was further perfused for 50 minutes with perfusion buffer (Pitchford et al, 2010). The perfusate was collected over 60 minutes and then centrifuged and resuspended in DMEM (Gibco) +20% fetal bovine serum for enumeration of CFU-HPCs and CFU-Fs.
Harvested peripheral blood or perfusate was red blood cell-lysed and 1×10^6 cells were added to tissue culture-treated 6-well plates containing 3 ml of Mesencult™ (05502; StemCell Technologies) to select for CFU-Fs. Similarly, 1×10^6 bone marrow cells harvested by bone marrow flush of the hind limb femur were plated for CFU-Fs. Cultures were incubated at 37° C. and media was changed on day 7. Bone marrow-derived CFU-Fs were enumerated on day 13 and blood- and perfusate-derived CFU-Fs were enumerated on day 21. Blood derived-CFU-Fs were further expanded and assessed for mesenchymal lineage markers by flow cytometry and following CD45 depletion (flow cytometry sorting of CD45 negative for mesenchymal trilineage differentiation (Supplemental Experimental Procedures).

CXCL12 = CXCL12 ELISA of bone marrow supernatant; assay type: in vivo, mice; settings: 4 days of treatment, bone marrow 2 hours after final injection
Procedure: (A) Mice were pretreated with BRL 37344 (β3), G-CSF or vehicle (VEH) once daily on 4 consecutive days. 2 hours after the final BRL 37344 injection or 24 hours after the final G-CSF injection, bone marrow was collected for quantification of CXCL12 levels (n=16 and n=6-8, respectively). (B) Bone marrow cells were collected from naïve mice and were treated in vitro with clenbuterol (β2), BRL 37344 (β3) or vehicle (VEH). CFU-Fs per 10^6 cells are shown (n=6 mice per group). (C) Mice were pre-treated with AM 251, AM 630, BRL 37344 (β3) or vehicle (VEH) once daily on 4 consecutive days. 2 hours after the last injection, bone marrow cells were collected for enumeration of CFU-Fs. CFU-Fs per 10^6 cells are shown (n=6-8 mice per group). (D) CB1 receptor antagonist AM 251 (CB1l, CB2 receptor antagonist AM 630 (CB2l, BRL 37344 (β3) or vehicle. Data represented as mean±SEM. (A) **p<0.01 (unpaired student t-test) and (B-D) *p<0.05, **p<0.01, ***p<0.001 (one-way ANOVA).
CXCL12 content in blood plasma and bone marrow supernatant was quantified using CXCL12 capture (MAB350) and detection (BAF351) antibodies (RnD systems), and the assay was performed according to the manufacturers' instructions. Recombinant mouse CXCL12 (RnD systems) was used to generate a standard curve.

CFU-Fs (MSPCs) = assay: Mobilization of MSPCs into peripheral blood (CFU-F assay); assay type: in vivo, mice

`C[C@H](Cc1ccc(OCC(=O)O)cc1)NC[C@H](O)c1cccc(Cl)c1` [BRL37344] was tested, and the “dose dependence of HSPC mobilization in response to the CXCR4 antagonist” value (HSPCs) was “dose response relationship”, the “MSC egress from the bone marrow in response to infusion of the CXCR4 antagonist” value (CFU-Fs (MSCs)) was “significantly enhanced both HPC and MSC egress from the bone marrow” and the “levels of CXCL12 in the bone marrow” value (CXCL12) was “had no effect on levels of CXCL12 in the bone marrow”. For the same molecule, the “pre-treatment time needed for CFU-F mobilization” value (CFU-Fs (MSPCs); 2 h versus 4 d pre-treatment, then AMD3100) was “required the pre-treatment of mice over 4 days to see this effect”, the “dose dependence of CFU-F mobilization in response to the CXCR4 antagonist” value (CFU-Fs (MSPCs); mouse, in vivo) was “dose response relationship” and the “circulating CFU-Fs” value (CFU-Fs (MSPCs); pre-treated once daily for 4 days, then AMD3100, blood 1 hour later) was “significantly boosted circulating numbers of HSPCs and CFU-Fs as compared to that observed with isoproterenol and AMD3100 in combination”.
